Results from PMC10457369, “Novel VEGFR2 inhibitors with thiazoloquinoxaline scaffold targeting hepatocellular carcinoma with lower cardiotoxic impact” (Scientific Reports, 2023).
Read-outs that look alike come from different tables or passages of the source. Each block holds one compound with its values, some of them ahead of it.

Tests used:
HepG2 cells = assay: HepG2 cell viability, SRB assay; assay type: cell-based; details: Homo sapiens
Description: (§1) Hepatocellular carcinoma (HepG2) and rat heart/myocardium (H9C2) were obtained from Nawah Scientific Inc., (Mokattam, Cairo, Egypt). Cells were maintained in DMEM media supplemented with […] of streptomycin (3810–74-0), 100 units/mL of penicillin (113–98-4) and 10% of heat-inactivated fetal bovine serum in humidified, 5% (v/v) CO2 atmosphere at 37 °C.
(§2) Cell viability was assessed by SRB assay,[67]. Aliquots of 100 μL cell suspension (5 × 10^3 cells) were in 96-well plates and incubated in complete media for 24 h. […] After 72 h of drug exposure, cells were fixed by replacing media with 150 μL of 10% TCA (76–03-9) and incubated at 4 °C for 1 h. The TCA solution was removed, and the cells were washed 5 times with distilled water. Aliquots of 70 μL SRB (3520–42-1) solution (0.4% w/v) were added and incubated in a dark place at room temperature for 10 min. Plates were washed 3 times with 1% acetic acid (64–19-7) and allowed to air-dry overnight. Then, 150 μL of TRIS (77–86-1) (10 mM) was added to dissolve protein-bound SRB stain; the absorbance was measured at 540 nm using a BMG LABTECH®- FLUOstar Omegammicroplate reader (Ortenberg, Germany).

hepatic VEGF = assay: Immunohistochemistry expression of VEGF in liver tissue of irradiated mice; assay type: in vivo; details: 50 mg/kg p.o., 3 days, 8 Gy irradiated mice, vs irradiated animals
Description: (§3) Whole body γ-irradiation of mice was performed at the NCRRT using the Gamma Cell-40 biological irradiator with a Cesium-137 irradiator unit, produced by the atomic energy of Canada limited (Sheridan science and technology park, Mississauga, Ontario, Canada). Mice were exposed to an acute dose of 8 Gy according to Yoo et al..
(§4) A total 32 mice were randomly allocated into 4 groups as follows: 1- control normal [Control] mice received vehicle (10% DMSO). 2- Irradiated mice (8 Gy) received vehicle [IRR]. […] 4- Irradiated mice treated with Compound 4d (50 mg/ kg body wt./ p.o) for 3 successive days, [IRR + cmp 4d]. After 3 days, all animals were anesthetized with ketamine (80 mg/ kg), blood samples were collected via retro-orbital plexus, and then serum samples were separated after centrifugation. Heart and liver samples were dissected and rapidly washed with cool saline then heart samples were stored at -80 °C till assay time. One lobe of liver was embedded in 10% formalin for immunohistochemistry assay.
Immunohistochemical study was carried out on paraffin tissue sections prepared for the detection VEGF, liver tissue sections were incubated separately with anti- VEGF (Gene Tex, USA). The expression of each marker was visualized by the chromogen 3,3-diaminobenzidine tetrahydrochloridem (DAB, Sigma Chemical Co.).

[1] = tested on: serum lactate dehydrogenase (LDH); assay: Serum LDH in 8 Gy irradiated mice; assay type: in vivo; details: 50 mg/kg p.o., 3 days
Description: as §3, §4
Serum LDH was estimated kinetically using Spectrum® coloring assay Kit [Egyptian company for biotechnology, SAE®, Egypt]. It was carried according to manufacturer's instructions; the values were expressed as IU/ml.

cardiac TNF-α = assay: Cardiac TNF-α ELISA in 8 Gy irradiated mice; assay type: in vivo; details: in comparison to control irradiated group, 50 mg/kg p.o., 3 days
Description: as §3, §4
(§5) Heart tissues of mice were weighted and minced then homogenized in cold fresh lysis buffer, the homogenate was centrifuged for 5 min at 4000 rpm, and then the supernatant was used for assay. Cardiac contents of CK, TNF-α and Caspase-9 were measured according to manufacturer instructions using CK ELISA kit [catalog no. EK730963, AFG Bioscience®, USA], TNF-α ELISA kit [catalog no. […]

cardiac caspase-9 = assay: Cardiac caspase-9 ELISA in 8 Gy irradiated mice; assay type: in vivo; details: 50 mg/kg p.o., 3 days
Description: as §3, §4, §5

[2] = tested on: heart creatine kinase (CK); assay: Heart creatine kinase (CK) ELISA in 8 Gy irradiated mice; assay type: in vivo; details: 50 mg/kg p.o., 3 days
Description: as §3, §4
Heart tissues of mice were weighted and minced then homogenized in cold fresh lysis buffer, the homogenate was centrifuged for 5 min at 4000 rpm, and then the supernatant was used for assay. Cardiac contents of CK, TNF-α and Caspase-9 were measured according to manufacturer instructions using CK ELISA kit [catalog no. EK730963, AFG Bioscience®, USA], TNF-α ELISA kit [catalog no. SEA626Ra, Cloud-Clone Corp®, USA] and Caspase-9 ELISA kit [catalog no. E-EL-R02054, Elabsciense®, USA], respectively.

H9C2 cells = assay: H9C2 cardiomyocyte viability, SRB assay; assay type: cell-based, rat; details: for IC50: 72 h, SRB
Description: as §1, §2

VEGFR-2 = target: T1, VEGFR-2 (Homo sapiens, UniProt P35968); assay: In-vitro VEGFR-2 kinase assay (BPS Bioscience kit, Kinase-Glo MAX); assay type: biochemical; details: mean ± S.D of three experiments
T1 construct: purchased BPS Bioscience 40325
Description: The VEGFR-2 Kinase Assay Kit [Catalog no., 40325, BPS Bioscience®, USA] is designed to measure VEGFR-2 kinase activity for screening and profiling applications using Kinase-Glo® MAX as a detection reagent. The VEGFR-2 Kinase Assay Kit comes in a convenient 96-well format, with enough purified recombinant VEGFR2 enzyme and VEGFR2 substrate. The assay protocol was carried out according to manufacturer instructions.

serum catalase = assay: Serum catalase activity in 8 Gy irradiated mice; assay type: in vivo; details: 50 mg/kg p.o., 3 days
Description: as §3, §4
Serum catalase was assessed colorimetrically in all groups according to manufacturer instructions using coloring endpoint kit [Biodiagnostic co.®, Egypt].

mice = details: male, Swiss albino, mouse, in vivo, po, 14 days
Description: For the study of the compound 4d's oral toxicity, 30 male Swiss albino mice were used. They were randomly allocated into 5 groups; the first group of mice (n = 6) received a vehicle and was used as control, while the other four groups, each received a different acute dose of compound 4d dissolved in 0.05% Tween 80 (9005–65-6) (200, 500, 800, and 1000 mg/kg p.o.). Up to 14 days after treatment, clinical toxicity symptoms (death, more than 20% weight loss, diarrhea, lethargy, tremors, and convulsions) were noted.

[3] = 72 h, SRB, read-out: HepG2 IC50

T1 sequence (P35968 20-1356): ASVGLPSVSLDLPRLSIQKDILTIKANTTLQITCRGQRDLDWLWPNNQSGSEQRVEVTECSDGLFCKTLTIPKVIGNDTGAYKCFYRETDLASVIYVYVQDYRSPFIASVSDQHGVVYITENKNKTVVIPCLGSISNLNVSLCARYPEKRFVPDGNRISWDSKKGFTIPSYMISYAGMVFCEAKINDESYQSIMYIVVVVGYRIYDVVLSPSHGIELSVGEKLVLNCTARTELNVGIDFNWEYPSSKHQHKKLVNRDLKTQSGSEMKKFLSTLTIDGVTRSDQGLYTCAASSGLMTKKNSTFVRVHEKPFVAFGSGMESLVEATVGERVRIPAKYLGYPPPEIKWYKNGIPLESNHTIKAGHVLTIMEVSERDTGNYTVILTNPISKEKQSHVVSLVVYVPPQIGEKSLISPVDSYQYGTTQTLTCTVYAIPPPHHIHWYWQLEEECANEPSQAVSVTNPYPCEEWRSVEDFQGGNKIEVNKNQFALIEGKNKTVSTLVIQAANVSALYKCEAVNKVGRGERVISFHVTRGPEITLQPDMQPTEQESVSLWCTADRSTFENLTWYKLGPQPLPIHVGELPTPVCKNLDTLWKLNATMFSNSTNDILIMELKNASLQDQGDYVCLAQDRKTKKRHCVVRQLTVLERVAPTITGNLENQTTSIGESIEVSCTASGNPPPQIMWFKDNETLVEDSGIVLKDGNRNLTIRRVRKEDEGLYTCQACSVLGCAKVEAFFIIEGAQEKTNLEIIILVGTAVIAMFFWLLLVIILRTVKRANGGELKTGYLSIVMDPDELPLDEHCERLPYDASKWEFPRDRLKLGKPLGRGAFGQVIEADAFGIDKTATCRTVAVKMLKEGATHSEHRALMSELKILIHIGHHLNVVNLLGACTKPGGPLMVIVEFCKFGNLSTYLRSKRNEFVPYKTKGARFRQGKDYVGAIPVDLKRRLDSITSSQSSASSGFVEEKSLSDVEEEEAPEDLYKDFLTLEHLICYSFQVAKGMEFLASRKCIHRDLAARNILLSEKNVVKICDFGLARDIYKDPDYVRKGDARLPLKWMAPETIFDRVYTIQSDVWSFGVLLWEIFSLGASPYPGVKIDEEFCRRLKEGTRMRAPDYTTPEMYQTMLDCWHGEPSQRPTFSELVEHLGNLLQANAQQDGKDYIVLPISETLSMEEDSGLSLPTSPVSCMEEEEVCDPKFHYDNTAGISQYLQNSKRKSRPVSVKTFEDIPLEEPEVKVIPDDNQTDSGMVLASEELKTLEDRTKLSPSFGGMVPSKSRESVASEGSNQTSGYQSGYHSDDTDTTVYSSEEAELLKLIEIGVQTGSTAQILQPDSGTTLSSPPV

Structure (SMILES): O=S(=O)(Nc1ccccn1)c1ccc(N=c2[nH]c3nc4ccccc4nc3s2)cc1 [Compound 4d, N-(pyridin-2-yl)-4-(thiazolo[4,5-b]quinoxalin-2(3H)-ylideneamino) benzene-sulfonamide]
viability at 0.01 µM (HepG2 cells; 72 h, SRB): 98.55 ± 0.47%
viability at 0.1 µM (HepG2 cells; 72 h, SRB): 98.32 ± 0.97%
viability at 1 µM (HepG2 cells; 72 h, SRB): 98.1 ± 1.8%
viability at 10 µM (HepG2 cells; 72 h, SRB): 6.62 ± 0.5%
viability at 100 µM (HepG2 cells; 72 h, SRB): 3.81 ± 0.24%
IC50 (HepG2 cells; [3]): 4310 nM
IC50 (HepG2 cells; read-out: suppressing potency on HepG2 cells proliferation): 4310 nM
expression of VEGF in liver tissue (hepatic VEGF): promisingly suppressed
serum LDH compared to normal values [1]: non-significant deviation from normal LDH values
decrease in serum LDH ([1]; compared to sorafenib treated group): 40.83%
reduction in cardiac TNF-α (cardiac TNF-α): 35.75%
decrease in Caspase-9 (cardiac caspase-9; compared to control irradiated animals): 20.63%
CK activity compared to normal values [2]: not significantly different from normal values
CK level compared to IRR non-treated group [2]: did not significantly lower CK level
times less cytotoxic than sorafenib (H9C2 cells; H9C2 cardiomyocytes): 2.93 times
IC50 (VEGFR-2): 61 ± 2.6 nM
serum catalase activity (serum catalase): normal catalase activity
high level of safety up to (mice): up to 1000 mg/kg

Structure (SMILES): O=S(=O)(Nc1ncccn1)c1ccc(N=c2[nH]c3nc4ccccc4nc3s2)cc1 [Compound 4e, N-(Pyrimidin-2-yl)-4-(thiazolo[4,5-b]quinoxalin-2(3H)-ylideneamino) benzene-sulfonamide]
melting point: 223 to 225 °C
IC50 (VEGFR-2): 112 ± 4.8 nM

Structure (SMILES): Cc1cc(NS(=O)(=O)c2ccc(N=c3[nH]c4nc5ccccc5nc4s3)cc2)no1 [Compound 4f, N-(5-Methylisoxazol-3-yl)-4-(thiazolo[4,5-b]quinoxalin-2(3H)-ylideneamino) benzene-sulfonamide]
viability at 0.01 µM (HepG2 cells; 72 h, SRB): 97.6 ± 1.26%
viability at 0.1 µM (HepG2 cells; 72 h, SRB): 97.1 ± 1.06%
viability at 1 µM (HepG2 cells; 72 h, SRB): 96.6 ± 1.2%
viability at 10 µM (HepG2 cells; 72 h, SRB): 95.5 ± 3%
viability at 100 µM (HepG2 cells; 72 h, SRB): 94 ± 2.03%
IC50 (HepG2 cells; [3]): > 100000 nM
melting point: 186 to 188 °C
IC50 (VEGFR-2): 83.3 ± 3.7 nM

Structure (SMILES): Cc1cc(C)nc(NS(=O)(=O)c2ccc(N=c3[nH]c4nc5ccccc5nc4s3)cc2)n1 [Compound 4i, N-(4,6-Dimethylpyrimidin-2-yl)-4-(thiazolo[4,5-b]quinoxalin-2(3H)-ylideneamino) benzenesulfonamide]
melting point: 246 to 248 °C
IC50 (VEGFR-2): 288 ± 13 nM

Structure (SMILES): CNC(=O)c1cc(Oc2ccc(NC(=O)Nc3ccc(Cl)c(C(F)(F)F)c3)cc2)ccn1 [Sorafenib, reference compound]
viability at 0.01 µM (HepG2 cells; 72 h, SRB): 99.58 ± 0.94%
viability at 0.1 µM (HepG2 cells; 72 h, SRB): 98.2 ± 3.19%
viability at 1 µM (HepG2 cells; 72 h, SRB): 87.1 ± 2.02%
viability at 10 µM (HepG2 cells; 72 h, SRB): 11.3 ± 0.31%
viability at 100 µM (HepG2 cells; 72 h, SRB): 4.05 ± 0.1%
IC50 (HepG2 cells; [3]): 2970 nM
expression of VEGF in liver tissue (hepatic VEGF): promisingly suppressed
increase in serum LDH ([1]; vs normal): 106.06%
reduction in cardiac TNF-α (cardiac TNF-α): 31.87%
increase in cardiac caspase-9 levels (cardiac caspase-9; over normal values): 29.83%
increment in CK enzymatic activity ([2]; vs normal): 35.88%
IC50 (H9C2 cells): 33500 nM
IC50 (H9C2 cells; listed as sorafenib): 98100 nM
decrease in serum catalase activity (serum catalase; vs normal): 6.19%

Structure (SMILES): Cc1ccnc(NS(=O)(=O)c2ccc(N=c3[nH]c4nc5ccccc5nc4s3)cc2)n1 [Compound 4h, N-(4-Methylpyrimidin-2-yl)-4-(thiazolo[4,5-b]quinoxalin-2(3H)-ylideneamino)-benzenesulfonamide]
melting point: 199 to 201 °C
IC50 (VEGFR-2): 217 ± 9.4 nM

Structure (SMILES): COc1cc(NS(=O)(=O)c2ccc(N=c3[nH]c4nc5ccccc5nc4s3)cc2)nc(OC)n1 [Compound 4j, N-(2,6-Dimethoxypyrimidin-4-yl)-4-(thiazolo[4,5-b]quinoxalin-2(3H)-ylidene-amino)-benzenesulfonamide]
melting point: 249 to 251 °C
IC50 (VEGFR-2): 368 ± 16 nM

Continued, values first:

melting point: 165 to 167 °C
IC50 (VEGFR-2): 169 ± 7.4 nM
Structure (SMILES): NS(=O)(=O)c1ccc(N=c2[nH]c3nc4ccccc4nc3s2)cc1 [Compound 4a, 4-(Thiazolo[4,5-b]quinoxalin-2(3H)-ylideneamino)benzenesulfonamide]

melting point: 245 to 247 °C
IC50 (VEGFR-2): 132 ± 5.7 nM
Structure (SMILES): CC(=O)NS(=O)(=O)c1ccc(N=c2[nH]c3nc4ccccc4nc3s2)cc1 [Compound 4b, N-((4-(Thiazolo[4,5-b]quinoxalin-2(3H)ylideneamino)phenyl)sulfonyl)-acetamide]

melting point: > 260 °C
IC50 (VEGFR-2): 254 ± 11 nM
Structure (SMILES): N=C(N)NS(=O)(=O)c1ccc(N=c2[nH]c3nc4ccccc4nc3s2)cc1 [Compound 4c, N-Carbamimidoyl-4-(thiazolo[4,5-b]quinoxalin-2(3H)-ylideneamino) benzene-esulfonamide]

melting point: 238 to 240 °C
IC50 (VEGFR-2): 99.8 ± 4.3 nM
Structure (SMILES): O=S(=O)(Nc1nccs1)c1ccc(N=c2[nH]c3nc4ccccc4nc3s2)cc1 [Compound 4g, N-(Thiazol-2-yl)-4-(thiazolo[4,5-b]quinoxalin-2(3H)-ylideneamino) benzene-sulfonamide]
